The assay concerns the target HCV NS3-4A serine protease (full-length NS3-4A protein) (Hepatitis C virus genotype 1a (isolate 1) (HCV), UniProt P26664). The experiment in a line: HCV NS3-4A protease assay. The assay is classed as biochemical, HCV genotype 1a. The settings on record: strain HCV-1, fluorogenic peptide substrate, read-out: Protease assay Ex. 12 IC50. How it is done:
The inhibitory activity of certain compounds of Table A against HCV NS3-4A serine protease is determined in a homogenous assay using the full-length NS3-4A protein (genotype 1a, strain HCV-1) and a commercially available internally-quenched fluorogenic peptide substrate as described by Taliani, M., et al. 1996 Anal. Biochem. 240:60-67, which is incorporated by reference in its entirety.

The record followed here is patent US8613914B2, “Peptidomimetic sulfamide compounds and antiviral uses thereof” (Novartis AG, priority 2009, dated 2013).

Sequence of HCV NS3-4A serine protease (full-length NS3-4A protein) (P26664 1027-1657): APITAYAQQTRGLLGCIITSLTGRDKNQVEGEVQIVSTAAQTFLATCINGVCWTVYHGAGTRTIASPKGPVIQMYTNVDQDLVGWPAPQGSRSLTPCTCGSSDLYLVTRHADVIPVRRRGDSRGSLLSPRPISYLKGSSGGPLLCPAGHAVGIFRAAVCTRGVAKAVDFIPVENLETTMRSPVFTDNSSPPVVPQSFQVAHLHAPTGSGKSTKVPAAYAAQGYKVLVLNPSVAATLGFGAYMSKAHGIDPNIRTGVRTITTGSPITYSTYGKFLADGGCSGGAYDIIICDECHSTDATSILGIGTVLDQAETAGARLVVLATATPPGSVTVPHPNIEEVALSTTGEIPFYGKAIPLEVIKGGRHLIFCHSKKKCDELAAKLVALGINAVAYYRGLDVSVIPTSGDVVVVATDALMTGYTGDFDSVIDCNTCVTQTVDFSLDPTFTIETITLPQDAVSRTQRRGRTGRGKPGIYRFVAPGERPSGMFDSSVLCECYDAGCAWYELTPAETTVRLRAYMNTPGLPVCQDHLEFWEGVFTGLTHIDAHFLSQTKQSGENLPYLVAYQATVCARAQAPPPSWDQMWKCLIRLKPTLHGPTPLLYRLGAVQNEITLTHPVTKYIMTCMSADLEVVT
Sequence of HCV NS3-4A serine protease (full-length NS3-4A protein) (P26664 1658-1711 partner): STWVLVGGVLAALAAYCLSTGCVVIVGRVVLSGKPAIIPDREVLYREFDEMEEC

On to `C=C[C@@H]1C[C@]1(NC(=O)[C@@H]1C[C@@]2(CN1C(=O)[C@@H](NC(=O)[C@@H](NC(=O)[C@@H]1CCCCN1C(C)C)C1CCCCC1)C1CCCC1)C(C)(C)C21CCC1)C(=O)NS(=O)(=O)N1CCCC1` [Compound 66, (5R,8S)-7-[(2S)-2-{[(2S)-2-cyclohexyl-2-({[(2S)-1-isopropylpiperidin-2-yl]carbonyl}amino)acetyl]amino}-2-cyclopentylacetyl]-10,10-dimethyl-N-{(1R,2S)-1-[(pyrrolidin-1-ylsulfonyl)carbamoyl]-2-vinylcyclopropyl}-7-azadispiro[3.0.4.1]decane-8-carboxamide], for which the IC50 was 5.5 nM. For `C=C[C@@H]1C[C@]1(NC(=O)[C@@H]1C[C@@]2(CN1C(=O)[C@@H](NC(=O)[C@@H](NC(=O)CN(C)C)C1CCCCC1)C(C)(C)C)C(C)(C)C21CCC1)C(=O)NS(=O)(=O)N1CCCC1` [Compound 200, (5R,8S)-7-{(2S)-2-[(cyclohexyl{[(dimethylamino)acetyl]amino}acetyl)amino]-3,3-dimethylbutanoyl}-10,10-dimethyl-N-{(1R,2S)-1-[(pyrrolidin-1-ylsulfonyl)carbamoyl]-2-vinylcyclopropyl}-7-azadispiro[3.0.4.1]decane-8-carboxamide], the IC50 was found to be 8 nM.

`C=C[C@@H]1C[C@]1(NC(=O)[C@@H]1C[C@@]2(CN1C(=O)[C@@H](NC(=O)[C@@H](NC(=O)[C@@H]1CCCN1CC)C1(C)CCCCC1)C1(C)CCCCC1)C(C)(C)C21CCC1)C(=O)NS(=O)(=O)N(CC)CC` [Compound 159, (5R,8S)-N-[(1R,2S)-1-{[(diethylamino)sulfonyl]carbamoyl}-2-vinylcyclopropyl]-7-[(2S)-2-{[(2S)-2-({[(2S)-1-ethylpyrrolidin-2-yl]carbonyl}amino)-2-(1-methylcyclohexyl)acetyl]amino}-2-(1-methylcyclohexyl)acetyl]-10,10-dimethyl-7-azadispiro[3.0.4.1]decane-8-carboxamide]: the IC50 is 11 nM.

For `C=C[C@@H]1C[C@]1(NC(=O)[C@@H]1C[C@@]2(CN1C(=O)[C@@H](NC(=O)[C@@H](NC(=O)c1cc(C(C)(C)C)nn1C)C1CCCCC1)C(C)(C)C)C(C)(C)C21CCC1)C(=O)NS(=O)(=O)N1CCCC1` [Compound 181, (5R,8S)-7-[(2S)-2-{[{[(3-tert-butyl-1-methyl-1H-pyrazol-5-yl)carbonyl]amino}(cyclohexyl)acetyl]amino}-3,3-dimethylbutanoyl]-10,10-dimethyl-N-{(1R,2S)-1-[(pyrrolidin-1-ylsulfonyl)carbamoyl]-2-vinylcyclopropyl}-7-azadispiro[3.0.4.1]decane-8-carboxamide], the IC50 turned out to be 90 nM. With `C=C[C@@H]1C[C@]1(NC(=O)[C@@H]1C[C@@]2(CN1C(=O)[C@@H](NC(=O)[C@@H](NC(=O)c1cc3cc(OC)ccc3[nH]1)C1CCCCC1)C(C)(C)C)C(C)(C)C21CCC1)C(=O)NS(=O)(=O)N1CCCC1` [Compound 176, (5R,8S)-7-{(2S)-2-[(cyclohexyl{[(5-methoxy-1H-indol-2-yl)carbonyl]amino}acetyl)amino]-3,3-dimethylbutanoyl}-10,10-dimethyl-N-{(1R,2S)-1-[(pyrrolidin-1-ylsulfonyl)carbamoyl]-2-vinylcyclopropyl}-7-azadispiro[3.0.4.1]decane-8-carboxamide] the figure was 25 nM; with `C=C[C@@H]1C[C@]1(NC(=O)[C@@H]1C[C@@]2(CN1C(=O)[C@@H](NC(=O)[C@@H](NC(=O)[C@H]1CCCCN1C(C)C)C1CCCCC1)C(C)(C)C)C(C)(C)C21CCC1)C(=O)NS(=O)(=O)N(C)CCC` [Compound 114, (5R,8S)-7-[(2S)-2-{[(2S)-2-cyclohexyl-2-({[(2R)-1-isopropylpiperidin-2-yl]carbonyl}amino)acetyl]amino}-3,3-dimethylbutanoyl]-10,10-dimethyl-N-[(1R,2S)-1-({[methyl(propyl)amino]sulfonyl}carbamoyl)-2-vinylcyclopropyl]-7-azadispiro[3.0.4.1]decane-8-carboxamide], 4.5 nM.

With `C=C[C@@H]1C[C@]1(NC(=O)[C@@H]1C[C@@]2(CN1C(=O)[C@@H](NC(=O)[C@@H](NC(=O)[C@H]1CCCCN1CC)C1CCCCC1)C(C)(C)C)C(C)(C)C21CCC1)C(=O)NS(=O)(=O)N1CCCC1` [Compound 36, (5R,8S)-7-[(2S)-2-{[(2S)-2-cyclohexyl-2-({[(2R)-1-ethylpiperidin-2-yl]carbonyl}amino)acetyl]amino}-3,3-dimethylbutanoyl]-10,10-dimethyl-N-{(1R,2S)-1-[(pyrrolidin-1-ylsulfonyl)carbamoyl]-2-vinylcyclopropyl}-7-azadispiro[3.0.4.1]decane-8-carboxamide], the IC50 amounted to 3.5 nM. For the compound `C=C[C@@H]1C[C@]1(NC(=O)[C@@H]1C[C@@]2(CN1C(=O)[C@@H](NC(=O)[C@@H](NC(=O)[C@@H]1CCCN1CC)C1(C)CCOCC1)C1(C)CCCCC1)C(C)(C)C21CCC1)C(=O)NS(=O)(=O)N(CC)CC` [Compound 157, (5R,8S)-N-[(1R,2S)-1-{[(diethylamino)sulfonyl]carbamoyl}-2-vinylcyclopropyl]-7-[(2S)-2-{[(2S)-2-({[(2S)-1-ethylpyrrolidin-2-yl]carbonyl}amino)-2-(4-methyltetrahydro-2H-pyran-4-yl)acetyl]amino}-2-(1-methylcyclohexyl)acetyl]-10,10-dimethyl-7-azadispiro[3.0.4.1]decane-8-carboxamide], the IC50 was found to be 1 nM. With `C=C[C@@H]1C[C@]1(NC(=O)[C@@H]1C[C@@]2(CN1C(=O)[C@@H](NC(=O)[C@@H](NC(=O)[C@@H]1CCCN1CC)C1(C)CCCCC1)C(C)(C)C)C(C)(C)C21CCC1)C(=O)NS(=O)(=O)N1CCCC1` [Compound 136, (5R,8S)-7-[(2S)-2-{[(2S)-2-({[(2S)-1-ethylpyrrolidin-2-yl]carbonyl}amino)-2-(1-methylcyclohexyl)acetyl]amino}-3,3-dimethylbutanoyl]-10,10-dimethyl-N-{(1R,2S)-1-[(pyrrolidin-1-ylsulfonyl)carbamoyl]-2-vinylcyclopropyl}-7-azadispiro[3.0.4.1]decane-8-carboxamide], the IC50 is 7 nM. With `C=C[C@@H]1C[C@]1(NC(=O)[C@@H]1C[C@@]2(CN1C(=O)[C@@H](NC(=O)[C@@H](NC(=O)c1cnccn1)C1CCOCC1)C(C)(C)C)C(C)(C)C21CCC1)C(=O)NS(=O)(=O)N1CCCC1` [Compound 43, (5R,8S)-7-[(2S)-3,3-dimethyl-2-{[(2S)-2-[(pyrazin-2-ylcarbonyl)amino]-2-(tetrahydro-2H-pyran-4-yl)acetyl]amino}butanoyl]-10,10-dimethyl-N-{(1R,2S)-1-[(pyrrolidin-1-ylsulfonyl)carbamoyl]-2-vinylcyclopropyl}-7-azadispiro[3.0.4.1]decane-8-carboxamide] the figure was 60 nM; with `C=C[C@@H]1C[C@]1(NC(=O)[C@@H]1C[C@@]2(CN1C(=O)[C@@H](NC(=O)[C@@H](NC(=O)[C@@H]1CC(F)(F)CN1C(C)C)C1CCCCC1)C(C)(C)C)C(C)(C)C21CCC1)C(=O)NS(=O)(=O)N1CCCC1` [Compound 89, (5R,8S)-7-[(2S)-2-{[(2S)-2-cyclohexyl-2-({[(2S)-4,4-difluoro-1-isopropylpyrrolidin-2-yl]carbonyl}amino)acetyl]amino}-3,3-dimethylbutanoyl]-10,10-dimethyl-N-{(1R,2S)-1-[(pyrrolidin-1-ylsulfonyl)carbamoyl]-2-vinylcyclopropyl}-7-azadispiro[3.0.4.1]decane-8-carboxamide], 30 nM. Then `C=C[C@@H]1C[C@]1(NC(=O)[C@@H]1C[C@@]2(CN1C(=O)[C@@H](NC(=O)[C@@H](NC(=O)[C@@H]1CCCN1CC)c1ccccc1)C(C)(C)C)C(C)(C)C21CCC1)C(=O)NS(=O)(=O)N1CCCC1` [Compound 102, (5R,8S)-7-[(2S)-2-{[(2S)-2-({[(2S)-1-ethylpyrrolidin-2-yl]carbonyl}amino)-2-phenylacetyl]amino}-3,3-dimethylbutanoyl]-10,10-dimethyl-N-{(1R,2S)-1-[(pyrrolidin-1-ylsulfonyl)carbamoyl]-2-vinylcyclopropyl}-7-azadispiro[3.0.4.1]decane-8-carboxamide], with 8 nM; and `C=C[C@@H]1C[C@]1(NC(=O)[C@@H]1C[C@@]2(CN1C(=O)[C@@H](NC(=O)[C@@H](NC(=O)[C@@H]1CCCCN1CC)C1CCCCC1)C(C)(C)C)C(C)(C)C21CCC1)C(=O)NS(=O)(=O)N(C)CC` [Compound 94, (5R,8S)-7-[(2S)-2-{[(2S)-2-cyclohexyl-2-({[(2S)-1-ethylpiperidin-2-yl]carbonyl}amino)acetyl]amino}-3,3-dimethylbutanoyl]-N-[(1R,2S)-1-({[ethyl(methyl)amino]sulfonyl}carbamoyl)-2-vinylcyclopropyl]-10,10-dimethyl-7-azadispiro[3.0.4.1]decane-8-carboxamide], with 1.5 nM. With `C=C[C@@H]1C[C@]1(NC(=O)[C@@H]1C[C@@]2(CN1C(=O)[C@@H](NC(=O)[C@@H](NC(=O)C1CN(C(C)C)C1)C(C)(C)C)C(C)(C)C)C(C)(C)C21CCC1)C(=O)NS(=O)(=O)N1CCCC1` [Compound 23, (5R,8S)-7-[(2S)-2-{[(2S)-2-{[(1-isopropylazetidin-3-yl)carbonyl]amino}-3,3-dimethylbutanoyl]amino}-3,3-dimethylbutanoyl]-10,10-dimethyl-N-{(1R,2S)-1-[(pyrrolidin-1-ylsulfonyl)carbamoyl]-2-vinylcyclopropyl}-7-azadispiro[3.0.4.1]decane-8-carboxamide], the IC50 was 400 nM. With `C=C[C@@H]1C[C@]1(NC(=O)[C@@H]1C[C@@]2(CN1C(=O)[C@@H](NC(=O)[C@@H](NC(=O)[C@@H]1CCCCN1C1CCCC1)C1CCCCC1)C(C)(C)C)C(C)(C)C21CCC1)C(=O)NS(=O)(=O)N(CC)CC` [Compound 64, (5R,8S)-7-[(2S)-2-{[(2S)-2-cyclohexyl-2-({[(2S)-1-cyclopentylpiperidin-2-yl]carbonyl}amino)acetyl]amino}-3,3-dimethylbutanoyl]-N-[(1R,2S)-1-{[(diethylamino)sulfonyl]carbamoyl}-2-vinylcyclopropyl]-10,10-dimethyl-7-azadispiro[3.0.4.1]decane-8-carboxamide], the IC50 worked out at 2 nM.
